Results: patent US9815796B2 (Merck Sharp & Dohme Corp., priority 2013, dated 2017)

molecular target: Rhesus PDE2A3 (Macaca mulatta, UniProt B3VTJ2); experiment: PDE2 fluorescence polarization (IMAP FP) inhibition assay, rhesus enzyme; format: biochemical, rhesus macaque; details: Rhesus PDE2, Lab B; read-out: Rhesus PDE2 Ki (nM) - Lab B
Outline: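 IMAP FP (mP from parallel and perpendicular fluorescence against substrate-only control) was read ≥1 h after adding binding reagent. The preceding 60 min room-temperature reaction contained FAM-cAMP (50 nM) and cGMP (1 uM) in pH 7.2 Tris buffer with MgCl2 and DTT. Enzyme was supernatant of sonicated AD293 cells expressing rhesus PDE2A3; compounds were 3-fold titrated, DMSO 1% final.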

Rhesus PDE2A3, sequence (B3VTJ2 1-941): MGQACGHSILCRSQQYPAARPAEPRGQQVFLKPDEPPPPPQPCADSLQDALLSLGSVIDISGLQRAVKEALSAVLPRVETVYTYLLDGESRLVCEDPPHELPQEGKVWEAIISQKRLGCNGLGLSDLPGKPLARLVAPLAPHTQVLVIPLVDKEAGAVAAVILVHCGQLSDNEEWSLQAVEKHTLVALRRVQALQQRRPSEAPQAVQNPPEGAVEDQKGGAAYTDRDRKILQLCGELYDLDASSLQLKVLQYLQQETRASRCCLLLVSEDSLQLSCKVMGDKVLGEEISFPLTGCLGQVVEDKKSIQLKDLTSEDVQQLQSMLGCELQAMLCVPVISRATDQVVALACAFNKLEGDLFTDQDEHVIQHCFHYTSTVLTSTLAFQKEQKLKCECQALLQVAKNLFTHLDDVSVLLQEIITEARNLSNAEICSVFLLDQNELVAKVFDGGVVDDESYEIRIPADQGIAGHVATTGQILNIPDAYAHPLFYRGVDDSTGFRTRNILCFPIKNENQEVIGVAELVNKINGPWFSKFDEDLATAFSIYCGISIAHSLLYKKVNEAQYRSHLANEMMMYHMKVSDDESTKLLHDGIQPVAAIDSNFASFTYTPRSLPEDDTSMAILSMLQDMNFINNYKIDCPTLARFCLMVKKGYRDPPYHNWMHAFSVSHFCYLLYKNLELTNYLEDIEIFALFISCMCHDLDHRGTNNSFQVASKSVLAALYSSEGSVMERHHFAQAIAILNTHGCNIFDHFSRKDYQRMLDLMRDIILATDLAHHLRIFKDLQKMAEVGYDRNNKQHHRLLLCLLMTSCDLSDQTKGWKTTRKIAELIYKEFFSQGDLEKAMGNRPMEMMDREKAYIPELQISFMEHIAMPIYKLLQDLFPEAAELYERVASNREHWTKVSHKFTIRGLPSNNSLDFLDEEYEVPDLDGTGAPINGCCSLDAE

Row | Ki [nM] | Structure (SMILES)
1 | 111 | CC[C@@H](NC(=O)c1cc(=O)[nH]c(C(C)(C)c2ccc(OC)cc2)n1)c1ccc(C(F)(F)F)c(F)c1 [Example 503, N-{(1R)-1-[3-fluoro-4-(trifluoromethyl)phenyl]propyl}-2-[1-(4-methoxyphenyl)-1-methylethyl]-6-oxo-1,6-dihydropyrimidine-4-carboxamide]
2 | 32 | Cc1nc(C(=O)N[C@@H](c2ccc(C(F)(F)F)c([N+](=O)[O-])c2)C(C)(C)C)cc(=O)[nH]1 [Example 531, N-{(1R)-2,2-dimethyl-1-[3-nitro-4-(trifluoromethyl)phenyl]propyl}-2-methyl-6-oxo-1,6-dihydropyrimidine-4-carboxamide]
3 | 112 | Cc1nc(C(=O)N[C@H](C)c2cc(F)c(C(F)(F)F)cc2F)cc(=O)[nH]1 [Example 616]
4 | 583 | C[C@@H](NC(=O)c1cc(=O)[nH]c(-c2nccs2)n1)c1ccc(C(F)(F)F)cc1 [Example 674, (R)-6-oxo-2-(thiazol-2-yl)-N-(1-(4-(trifluoromethyl)phenyl)ethyl)-1,6-dihydropyrimidine-4-carboxamide]
5 | 129 | Cc1nc(C(=O)NC(C)(C)c2ccc(S(F)(F)(F)(F)F)cc2)cc(=O)[nH]1 [Example 677, 2-methyl-N-{1-methyl-1-[4-(pentafluoro-λ^6-sulfanyl)phenyl]ethyl}-6-oxo-1,6-dihydropyrimidine-4-carboxamide]
6 | 501 | CC(C)(NC(=O)c1cc(=O)[nH]c(-c2ncccn2)n1)c1ccc(S(F)(F)(F)(F)F)cc1 [Example 678, N-{1-methyl-1-[4-(pentafluoro-λ^6-sulfanyl)phenyl]ethyl}-6-oxo-1,6-dihydro-2,2′-bipyrimidine-4-carboxamide]
7 | 90 | CC(C)(NC(=O)c1cc(=O)[nH]c(-c2ccccc2)n1)c1ccc(S(F)(F)(F)(F)F)cc1 [Example 679, N-{1-methyl-1-[4-(pentafluoro-λ^6-sulfanyl)phenyl]ethyl}-6-oxo-2-phenyl-1,6-dihydropyrimidine-4-carboxamide]

molecular target: human PDE2A1 (Homo sapiens (Human), UniProt O00408); experiment: IMAP FP PDE selectivity panel, human PDE2A1; format: biochemical; details: Human PDE2, Lab B; read-out: Human PDE2 Ki (nM) - Lab B
Sequence (O00408 other isoform, or with tags, fused parts or gaps): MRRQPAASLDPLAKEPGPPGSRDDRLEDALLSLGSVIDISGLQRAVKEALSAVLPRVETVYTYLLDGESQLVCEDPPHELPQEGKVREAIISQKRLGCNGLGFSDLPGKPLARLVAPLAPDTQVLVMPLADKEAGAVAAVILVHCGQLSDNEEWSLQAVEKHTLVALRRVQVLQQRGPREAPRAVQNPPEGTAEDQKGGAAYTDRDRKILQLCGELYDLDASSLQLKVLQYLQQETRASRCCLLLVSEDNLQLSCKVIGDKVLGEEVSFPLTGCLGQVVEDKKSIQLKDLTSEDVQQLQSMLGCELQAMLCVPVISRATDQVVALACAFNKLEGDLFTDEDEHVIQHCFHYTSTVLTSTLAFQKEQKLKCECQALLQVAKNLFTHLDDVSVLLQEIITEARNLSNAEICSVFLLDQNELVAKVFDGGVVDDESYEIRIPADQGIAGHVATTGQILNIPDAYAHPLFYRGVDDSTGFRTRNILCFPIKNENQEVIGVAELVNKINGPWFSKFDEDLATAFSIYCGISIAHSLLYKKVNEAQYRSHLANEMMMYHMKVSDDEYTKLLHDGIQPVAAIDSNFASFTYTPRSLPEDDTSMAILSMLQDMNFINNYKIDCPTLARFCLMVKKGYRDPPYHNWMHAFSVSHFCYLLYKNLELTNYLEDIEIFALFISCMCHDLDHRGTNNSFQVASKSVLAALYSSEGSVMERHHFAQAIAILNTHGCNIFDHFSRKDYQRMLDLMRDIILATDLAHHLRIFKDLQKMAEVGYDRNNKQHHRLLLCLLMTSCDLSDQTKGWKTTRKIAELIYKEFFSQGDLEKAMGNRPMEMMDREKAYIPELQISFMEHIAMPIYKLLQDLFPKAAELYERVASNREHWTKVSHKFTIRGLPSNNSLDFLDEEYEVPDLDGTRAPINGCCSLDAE
Method: Selectivity for PDE2, as compared to other PDE families, was assessed using the IMAP® technology. Human PDE 10A2 enzyme was prepared from cytosolic fractions of transiently transfected HEK cells. All other PDE's were GST Tag human enzyme expressed in insect cells and were obtained from BPS Bioscience (San Diego, Calif.): PDE1A (Cat#60010), human PDE2A1 (Cat#60020), PDE3A (Cat#60030), PDE4A1A (Cat#60040), PDE5A1 (Cat#60050), PDE6C (Cat#60060), PDE7A (Cat#60070), PDE8A1 (Cat#60080), PDE9A2 (Cat#60090), PDE11A4 (Cat#60110).
Assays for PDE 1 through 11 were performed in parallel at room temperature in 384-well microtiter plates with an incubation volume of 20.2 μL. Solutions of test compounds were prepared in DMSO and serially diluted with DMSO to yield 30 μL of each of ten solutions differing by 3-fold in concentration, at 32 serial dilutions per plate. […] A Labcyte POD 810 (Labcyte, Sunnyvale, Calif.) was used to dispense 200 nL from each well of the titration plate to make eleven copies of the assay plate for each titration, one copy for each PDE enzyme. A solution of each enzyme (dilution from aliquots, sufficient to produce 20% substrate conversion) and a separate solution of FAM-labeled cAMP or FAM-labeled cGMP from Molecular Devices (Sunnyvale, Calif., product # R7506 or cGMP#R7508), at a final concentration of 50 nM were made in the assay buffer (10 mM Tris HCl, pH 7.2, 10 mM MgCl2, 0.05% NaN3 0.01% Tween-20, and 1 mM DTT). Note that the substrate for PDE2 is 50 nM FAM cAMP containing 1000 nM of cGMP. The enzyme and the substrate were then added to the assay plates in two consecutive additions of 10 μL and then shaken to mix. The reaction was allowed to proceed at room temperature for 60 minutes. A binding solution was then made from the kit components, comprised of 80% Solution A, 20% Solution B and binding reagent at a volume of 1/600 the total binding solution. The enzymatic reaction was stopped by addition of 60 μL of the binding solution to each well of the assay plate. The plates were sealed and shaken for 10 seconds. The plates were incubated at room temperature for one hour, then the parallel and perpendicular fluorescence was measured using a Tecan Genios Pro plate reader (Tecan, Switzerland). The apparent inhibition constants for the compounds against all 11 PDE's was determined from the parallel and perpendicular fluorescent readings as described for PDE10 FP assay using the following apparent KM values for each enzyme and substrate combination: PDE1A (FAM cGMP) 70 nM, human PDE2A1 (FAM cAMP) 10,000 nM, PDE3A (FAM cAMP) 50 nM, PDE4A1A (FAM cAMP) 1500 nM, PDE5A1 (FAM cGMP) 400 nM, PDE6C (FAM cGMP) 700 nM, PDE7A (FAM cAMP) 150 nM, PDE8A1 (FAM cAMP) 50 nM, PDE9A2 (FAM cGMP) 60 nM, PDE10A2 (FAM cAMP) 150 nM, PDE11A4 (FAM cAMP) 1000 nM. The intrinsic PDE2 inhibitory activity of a compound which may be used in accordance with the present invention may be determined by these assays.

Row | Structure (SMILES) | Ki [nM]
8 | Cc1nc(C(=O)N[C@]2(c3ccc(C(C)C)cc3)C[C@H]2C)cc(=O)[nH]1 (single isomer, unassigned) [Example 664, 2-methyl-N-{2-methyl-1-[4-(1-methylethyl)phenyl]cyclopropyl}-6-oxo-1,6-dihydropyrimidine-4-carboxamide] | ~1570
9 | Cc1nc(C(=O)N[C@]2(c3ccc(C(C)C)cc3)C[C@H]2C)cc(=O)[nH]1 (single isomer, unassigned) [Example 665, 2-methyl-N-{2-methyl-1-[4-(1-methylethyl)phenyl]cyclopropyl}-6-oxo-1,6-dihydropyrimidine-4-carboxamide] | 4.95
10 | CCC(C)(NC(=O)c1cc(=O)[nH]c(C)n1)c1ccc(C(F)(F)F)cc1 (single isomer, unassigned) [Example 668, (S)- or (R)-2-methyl-N-{1-methyl-1-[4-(trifluoromethyl)phenyl]propyl}-6-oxo-1,6-dihydropyrimidine-4-carboxamide] | 67
11 | CCC(C)(NC(=O)c1cc(=O)[nH]c(C)n1)c1ccc(C(F)(F)F)cc1 (single isomer, unassigned) [Example 669, (R)- or (S)-2-methyl-N-{1-methyl-1-[4-(trifluoromethyl)phenyl]propyl}-6-oxo-1,6-dihydropyrimidine-4-carboxamide] | 15
12 | CC(C)(C)C(NC(=O)c1cc(=O)[nH]c(-c2ncco2)n1)c1ccc(C(F)(F)F)cc1 (single isomer, unassigned) [Example 682, (R)- or (S)-N-(2,2-dimethyl-1-(4-(trifluoromethyl)phenyl)propyl)-2-(oxazol-2-yl)-6-oxo-1,6-dihydropyrimidine-4-carboxamide] | 48
13 | CC(C)(C)C(NC(=O)c1cc(=O)[nH]c(-c2ncco2)n1)c1ccc(C(F)(F)F)cc1 (single isomer, unassigned) [Example 683, (S)- or (R)-N-(2,2-dimethyl-1-(4-(trifluoromethyl)phenyl)propyl)-2-(oxazol-2-yl)-6-oxo-1,6-dihydropyrimidine-4-carboxamide] | > 2960

The next lines start with the values.

Row | Ki [nM] | Structure (SMILES)
14 | 28 | Cc1nc(C(=O)N[C@]2(c3ccc(C(F)(F)F)cc3)C[C@@H]2C)cc(=O)[nH]1 (single isomer, unassigned) [Example 670, 2-methyl-N-{2-methyl-1-[4-(trifluoromethyl)phenyl]cyclopropyl}-6-oxo-1,6-dihydropyrimidine-4-carboxamide]
15 | 14 | Cc1nc(C(=O)N[C@]2(c3ccc(C(F)(F)F)cc3)C[C@@H]2C)cc(=O)[nH]1 (single isomer, unassigned) [Example 671, 2-methyl-N-{2-methyl-1-[4-(trifluoromethyl)phenyl)cyclopropyl}-6-oxo-1,6-dihydropyrimidine-4-carboxamide]
16 | > 2960 | Cc1nc(C(=O)NC(C)c2ccc(C(F)(F)C(F)(F)F)cc2)cc(=O)[nH]1 (single isomer, unassigned) [Example 684, (S)- or (R)-2-methyl-6-oxo-N-(1-(4-(perfluoroethyl)phenyl)ethyl)-1,6-dihydropyrimidine-4-carboxamide]
17 | > 2960 | Cc1nc(C(=O)NC(C)c2ccc(C3(C(F)(F)F)CC3)cc2)cc(=O)[nH]1 (single isomer, unassigned) [Example 686, (S)- or (R)-2-methyl-6-oxo-N-(1-(4-(1-(trifluoromethyl)cyclopropyl)phenyl)-ethyl)-1,6-dihydropyrimidine-4-carboxamide]
18 | 108 | Cc1nc(C(=O)NC(C)c2ccc(C3(C(F)(F)F)CC3)cc2)cc(=O)[nH]1 (single isomer, unassigned) [Example 687, (R)- or (S)-2-methyl-6-oxo-N-(1-(4-(1-(trifluoromethyl)cyclopropyl)phenyl)-ethyl)-1,6-dihydropyrimidine-4-carboxamide]
19 | > 2960 | CC(NC(=O)c1cc(=O)[nH]c(C2CC2)n1)c1ccc(C2(C(F)(F)F)CC2)cc1 (single isomer, unassigned) [Example 688, (S)- or (R)-2-cyclopropyl-6-oxo-N-(1-(4-(1-(trifluoromethyl)cyclopropyl)phenyl)-ethyl)-1,6-dihydropyrimidine-4-carboxamide]
20 | 67 | CC(NC(=O)c1cc(=O)[nH]c(C2CC2)n1)c1ccc(C2(C(F)(F)F)CC2)cc1 (single isomer, unassigned) [Example 689, (R)- or (S)-2-cyclopropyl-6-oxo-N-(1-(4-(1-(trifluoromethyl)cyclopropyl)phenyl)-ethyl)-1,6-dihydropyrimidine-4-carboxamide]
21 | > 2960 | CC(NC(=O)c1cc(=O)[nH]c(-c2ccccc2)n1)c1ccc(C2(C(F)(F)F)CC2)cc1 (single isomer, unassigned) [Example 690, (S)- or (R)-6-oxo-2-phenyl-N-(1-(4-(1-(trifluoromethyl)cyclopropyl)phenyl)-ethyl)-1,6-dihydropyrimidine-4-carboxamide]
22 | 39 | CC(NC(=O)c1cc(=O)[nH]c(-c2ccccc2)n1)c1ccc(C2(C(F)(F)F)CC2)cc1 (single isomer, unassigned) [Example 691, (R)- or (S)-6-oxo-2-phenyl-N-(1-(4-(1-(trifluoromethyl)cyclopropyl)phenyl)-ethyl)-1,6-dihydropyrimidine-4-carboxamide]
